Key:
[1] = test system: rats with spinal nerve ligation (L5/L6); test: Spinal nerve ligation (Chung's) model of experimental neuropathy, von Frey test; conditions: for increase of ipsilateral paw withdrawal threshold (PWT): von Frey, day 12 post-surgery
[2] = Metabolic stability in liver microsomes; format: in vitro ADME; conditions: 0.5 mg/ml rat liver microsomes; read-out: Microsomal stability (% remaining in 30 min)
[3] = target: opioid receptor delta (DOP) (Homo sapiens, UniProt P41143); test: CEREP Delta (DOP) (h) (agonist radioligand); format: binding; conditions: BT13 1 μM; Cat. No. 0114; average of duplicate; read-out: Percentage of inhibition/potentiation from control
[4] = target: Ca2+ channel (L, diltiazem site) (Rattus norvegicus, UniProt P22002); test: CEREP Ca2+ channel (L, diltiazem site) (benzothiazepines) (antagonist radioligand); format: binding; conditions: BT13 1 μM; Cat. No. 0162; average of duplicate; read-out: Percentage of inhibition/potentiation from control
TrkB = target: T1, TrkB (Rattus norvegicus, UniProt Q63604); test: Luciferase reporter-gene assay, TrkB reporter cells; format: cell-based; conditions: TrkB reporter cell line
T1 construct: expressed in transfected cells; host or cells: MG87 murine fibroblasts (MG87TrkB)

adenosine receptor A1 = adenosine receptor A1 (Homo sapiens, UniProt P30542); test: CEREP A1 (h) (antagonist radioligand); format: binding; conditions: BT13 1 μM; Cat. No. 0002; average of duplicate; read-out: Percentage of inhibition/potentiation from control
[5] = Plasma stability, mouse plasma; format: in vitro ADME; conditions: read-out: Plasma stability (% remaining after 1 h)
dopamine receptor D2L = dopamine receptor D2L (Homo sapiens, UniProt P14416); test: CEREP D2L (h) (antagonist radioligand); format: binding; conditions: BT13 1 μM; Cat. No. 1405; average of duplicate; read-out: Percentage of inhibition/potentiation from control
Sequence of dopamine receptor D2L (P14416 whole entry): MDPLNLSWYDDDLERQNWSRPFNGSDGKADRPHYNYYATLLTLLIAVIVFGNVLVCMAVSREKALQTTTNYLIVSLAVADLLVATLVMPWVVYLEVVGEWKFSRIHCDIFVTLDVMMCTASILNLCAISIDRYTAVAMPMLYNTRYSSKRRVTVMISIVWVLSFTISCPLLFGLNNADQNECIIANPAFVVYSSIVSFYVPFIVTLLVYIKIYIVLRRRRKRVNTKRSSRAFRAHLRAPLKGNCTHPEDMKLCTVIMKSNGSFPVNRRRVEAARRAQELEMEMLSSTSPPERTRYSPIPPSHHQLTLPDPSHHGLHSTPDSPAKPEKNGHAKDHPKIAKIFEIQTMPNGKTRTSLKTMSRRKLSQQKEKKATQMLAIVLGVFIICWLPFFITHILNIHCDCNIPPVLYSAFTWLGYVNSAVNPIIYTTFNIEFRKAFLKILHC

Sequence of Ca2+ channel (L, diltiazem site) (P22002 whole entry): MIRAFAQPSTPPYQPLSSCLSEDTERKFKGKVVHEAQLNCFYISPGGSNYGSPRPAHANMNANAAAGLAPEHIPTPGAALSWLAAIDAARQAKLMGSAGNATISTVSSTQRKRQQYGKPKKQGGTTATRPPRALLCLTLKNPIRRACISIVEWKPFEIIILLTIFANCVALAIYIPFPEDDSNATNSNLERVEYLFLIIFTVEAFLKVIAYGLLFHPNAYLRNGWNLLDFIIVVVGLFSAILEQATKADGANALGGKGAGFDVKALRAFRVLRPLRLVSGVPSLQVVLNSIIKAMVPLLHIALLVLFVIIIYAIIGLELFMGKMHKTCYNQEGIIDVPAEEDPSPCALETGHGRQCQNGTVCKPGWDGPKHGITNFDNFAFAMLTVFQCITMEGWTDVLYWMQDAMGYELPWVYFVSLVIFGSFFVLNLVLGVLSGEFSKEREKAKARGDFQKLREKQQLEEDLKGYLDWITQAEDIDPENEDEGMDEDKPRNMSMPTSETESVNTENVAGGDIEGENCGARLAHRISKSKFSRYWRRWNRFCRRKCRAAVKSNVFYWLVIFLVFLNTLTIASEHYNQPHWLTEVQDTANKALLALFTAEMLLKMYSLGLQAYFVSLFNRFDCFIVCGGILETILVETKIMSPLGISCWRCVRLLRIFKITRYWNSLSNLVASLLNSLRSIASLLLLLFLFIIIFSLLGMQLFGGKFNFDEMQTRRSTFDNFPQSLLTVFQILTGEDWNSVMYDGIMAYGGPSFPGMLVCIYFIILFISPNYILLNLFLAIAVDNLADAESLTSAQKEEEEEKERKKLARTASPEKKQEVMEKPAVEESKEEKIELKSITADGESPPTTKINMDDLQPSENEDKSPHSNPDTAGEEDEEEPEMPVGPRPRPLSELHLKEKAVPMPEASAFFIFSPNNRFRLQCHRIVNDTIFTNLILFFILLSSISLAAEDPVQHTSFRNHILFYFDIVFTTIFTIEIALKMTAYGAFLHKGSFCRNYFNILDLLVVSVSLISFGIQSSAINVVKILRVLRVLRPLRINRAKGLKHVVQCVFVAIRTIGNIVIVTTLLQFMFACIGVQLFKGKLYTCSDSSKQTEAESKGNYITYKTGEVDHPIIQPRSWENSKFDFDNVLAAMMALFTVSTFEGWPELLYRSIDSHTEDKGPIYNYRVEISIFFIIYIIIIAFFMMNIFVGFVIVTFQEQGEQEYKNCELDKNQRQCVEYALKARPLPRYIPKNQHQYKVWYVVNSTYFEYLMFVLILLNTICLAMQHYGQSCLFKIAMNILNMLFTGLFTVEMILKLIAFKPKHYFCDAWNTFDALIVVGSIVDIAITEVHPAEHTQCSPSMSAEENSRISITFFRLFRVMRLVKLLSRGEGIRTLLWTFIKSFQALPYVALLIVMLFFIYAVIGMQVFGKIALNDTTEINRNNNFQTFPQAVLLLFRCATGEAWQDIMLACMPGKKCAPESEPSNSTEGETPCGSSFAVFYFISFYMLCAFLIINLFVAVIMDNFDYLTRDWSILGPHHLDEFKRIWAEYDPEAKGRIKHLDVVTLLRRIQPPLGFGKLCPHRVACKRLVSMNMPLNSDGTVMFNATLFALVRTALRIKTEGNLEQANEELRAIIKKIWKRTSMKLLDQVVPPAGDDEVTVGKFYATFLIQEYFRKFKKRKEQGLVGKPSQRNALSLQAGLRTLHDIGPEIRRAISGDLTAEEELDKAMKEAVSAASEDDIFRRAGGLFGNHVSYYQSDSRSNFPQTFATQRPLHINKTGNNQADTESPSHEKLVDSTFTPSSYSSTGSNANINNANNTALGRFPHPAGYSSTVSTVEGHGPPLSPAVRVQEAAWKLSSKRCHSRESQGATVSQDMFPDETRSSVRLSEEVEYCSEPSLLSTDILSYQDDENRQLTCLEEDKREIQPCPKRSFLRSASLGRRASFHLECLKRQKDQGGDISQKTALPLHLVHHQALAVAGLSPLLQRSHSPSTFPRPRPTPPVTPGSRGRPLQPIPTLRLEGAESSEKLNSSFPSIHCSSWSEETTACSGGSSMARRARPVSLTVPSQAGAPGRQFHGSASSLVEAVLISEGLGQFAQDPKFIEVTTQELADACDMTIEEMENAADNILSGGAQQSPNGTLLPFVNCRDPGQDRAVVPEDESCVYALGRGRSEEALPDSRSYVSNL
Sequence of adenosine receptor A1 (P30542 whole entry): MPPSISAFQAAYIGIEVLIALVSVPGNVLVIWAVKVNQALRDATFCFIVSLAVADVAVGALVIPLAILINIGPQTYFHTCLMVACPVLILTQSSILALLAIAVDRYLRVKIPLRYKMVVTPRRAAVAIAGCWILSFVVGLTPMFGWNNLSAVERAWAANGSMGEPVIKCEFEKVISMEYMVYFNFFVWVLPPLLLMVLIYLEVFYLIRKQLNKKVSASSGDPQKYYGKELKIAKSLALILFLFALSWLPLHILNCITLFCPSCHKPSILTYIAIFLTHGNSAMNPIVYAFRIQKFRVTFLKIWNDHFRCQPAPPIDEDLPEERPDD
T1 sequence (Q63604 32-821): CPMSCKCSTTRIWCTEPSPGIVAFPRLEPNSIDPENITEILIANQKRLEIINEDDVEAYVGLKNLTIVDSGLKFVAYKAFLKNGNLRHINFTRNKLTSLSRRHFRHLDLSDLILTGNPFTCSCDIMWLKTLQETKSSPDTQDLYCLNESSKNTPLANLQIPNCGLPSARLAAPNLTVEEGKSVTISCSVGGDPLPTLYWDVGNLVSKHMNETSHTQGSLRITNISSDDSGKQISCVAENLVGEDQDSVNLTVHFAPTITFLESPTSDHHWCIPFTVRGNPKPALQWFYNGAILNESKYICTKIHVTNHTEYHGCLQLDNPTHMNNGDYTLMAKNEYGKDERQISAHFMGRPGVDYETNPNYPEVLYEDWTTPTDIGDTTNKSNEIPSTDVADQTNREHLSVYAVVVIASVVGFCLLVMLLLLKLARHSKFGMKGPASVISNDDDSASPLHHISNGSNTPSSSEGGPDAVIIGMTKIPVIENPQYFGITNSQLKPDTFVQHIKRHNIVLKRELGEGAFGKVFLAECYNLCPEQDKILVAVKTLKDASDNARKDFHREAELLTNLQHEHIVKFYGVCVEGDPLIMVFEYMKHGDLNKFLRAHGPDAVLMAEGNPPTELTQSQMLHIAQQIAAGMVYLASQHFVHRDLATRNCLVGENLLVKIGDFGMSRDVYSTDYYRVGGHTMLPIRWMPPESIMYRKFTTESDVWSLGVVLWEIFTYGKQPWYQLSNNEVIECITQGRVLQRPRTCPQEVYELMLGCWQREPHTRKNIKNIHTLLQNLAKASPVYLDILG
Sequence of opioid receptor delta (DOP) (P41143 whole entry): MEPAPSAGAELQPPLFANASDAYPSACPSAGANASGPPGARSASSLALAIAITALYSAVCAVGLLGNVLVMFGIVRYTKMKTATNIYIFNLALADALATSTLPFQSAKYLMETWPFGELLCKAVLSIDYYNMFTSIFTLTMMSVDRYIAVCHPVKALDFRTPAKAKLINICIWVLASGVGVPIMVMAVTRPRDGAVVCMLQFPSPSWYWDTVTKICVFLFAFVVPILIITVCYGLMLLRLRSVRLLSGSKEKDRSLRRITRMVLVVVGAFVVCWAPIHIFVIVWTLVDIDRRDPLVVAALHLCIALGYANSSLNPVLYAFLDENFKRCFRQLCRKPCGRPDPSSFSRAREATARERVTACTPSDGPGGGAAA

With CCN(CC)S(=O)(=O)c1ccc(OC)c(N2CCN(C(=O)c3ccc(F)cc3C(F)(F)F)CC2)c1 [BT13] the “increase of ipsilateral paw withdrawal threshold (PWT)” value ([1]; BT13 20 mg/kg s.c. on days 1, 3, 5, 8, 10, 12) was 2.5 times, the “increase of ipsilateral paw withdrawal threshold (PWT)” value ([1]; BT13 25 mg/kg s.c. on days 1, 3, 5, 8, 10, 12) was 2.9 times and the “effect on contralateral PWTs” value ([1]; repeated post-surgical s.c. administration of BT13) was “did not influence”. It also gave a remaining at 0.5 h [2] of 2.8 ± 0.1%, an inhibition at 1 µM [3] of 3% and an inhibition at 1 µM [4] of 16%. The “activation of luciferase reporter” value (TrkB) was “did not activate luciferase”, the inhibition at 1 µM (adenosine receptor A1) was 5% and the remaining at 1 h [5] was 110 ± 3.1%. For the same compound, the inhibition at 1 µM (dopamine receptor D2L) was -3%.

Source: publication PMC5478727, “A Novel Small Molecule GDNF Receptor RET Agonist, BT13, Promotes Neurite Growth from Sensory Neurons in Vitro and Attenuates Experimental Neuropathy in the Rat” (Frontiers in Pharmacology, 2017)
